Values quoted from earlier work as cited in patent US20070149409A1, “Pesticide formulations with substituted biopolymers and organic polymers for improving residual activity, droplet size, adherence and rainfastness on leaves and reduction in soil leaching” (priority 2003, published 2007).

Molecule | pK / pKa
Nc1nc[nH]n1 [Amitrole] | 9.8
CP(=O)(O)CCC(N)C(=O)O (centres unmarked) [glufosinate] | 9.8
CCCC(Cn1cncn1)c1ccc(Cl)cc1Cl (centres unmarked) [penconazole] | 1.5
CCCOC(=O)NCCCN(C)C [propamocarb] | 4.9
Indole acetic acid | 4.7
